Laboratory results from patent US10344019B2 (priority 2010, dated 2019).
Read-outs that look alike come from different tables or passages of the source.

What was measured:
Experiment in all cases: microbe, parasite or virus in culture
Format in all cases: cell-based
[1] = system: HCV 1a RLuc cells (dicistronic genotype 1a H77 replicon, RLuc reporter); conditions: Hepatitis C virus, read-out: 1a
Procedure, shortened: (§1)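 Replicon cells stably carrying the listed RLuc-encoding dicistronic replicons were seeded and treated with DMSO serial dilutions of compound (10 mM stocks) diluted into culture medium. After 72 h, cells were lysed and Renilla luciferase activity measured. EC50 was derived by non-linear regression.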

[2] = system: HCV 1b RLuc cells (dicistronic genotype 1b Con1 replicon, RLuc reporter); conditions: Hepatitis C virus, read-out: 1b (nM)
Procedure, shortened: as §1

[3] = system: HCV 2a JFH-1 Rluc cells (dicistronic genotype 2a JFH-1 replicon, RLuc reporter); conditions: Hepatitis C virus, genotype 2a JFH-1 replicon, read-out: 2a JFH
Procedure, shortened: as §1

[4] = system: HCV 3a RLuc cells (NS5A chimeric genotype 1b Con1 replicon with consensus genotype 3a NS5A gene); conditions: Hepatitis C virus
Procedure, shortened: as §1

[5] = system: HCV 4a Rluc cells (NS5A chimeric genotype 1b Con1 replicon with genotype 4a NS5A gene); conditions: Hepatitis C virus, read-out: 4a
Procedure, shortened: as §1

[6] = 72 h, Table 2, genotype 1a H77 replicon, 72 hours
[7] = read-out: 3a, Table 2, genotype 3a NS5A chimeric replicon
[8] = genotype 1a H77 replicon, RLuc reporter
[9] = read-out: 3a, genotype 3a NS5A chimeric 1b Con1 replicon
[10] = 72 h, Table 1, genotype 1a H77 replicon, 72 hours
[11] = read-out: 3a, Table 1, genotype 3a NS5A chimeric replicon
[12] = read-out: 3a, genotype 3a replicon

Structure (SMILES) | EC50 ([2]; 72 h) | EC50 [5] | EC50 [1, 8] | EC50 [2] | EC50 ([3]; RLuc reporter) | EC50 [4, 9] | further results
COC(=O)N[C@H](C(=O)N1CCC[C@H]1c1nc2ccc3cc(-c4ccc5c(c4)CCc4nc([C@@H]6[C@H]7CC[C@H](C7)N6C(=O)[C@@H](NC(=O)OC)C6CCOCC6)[nH]c4-5)ccc3c2[nH]1)C(C)C [Example 89] | 0.064 nM | 0.001 to 0.99 nM | – | – | – | – | EC50 [1, 6]: 0.001 to 0.999 nM; EC50 ([3]; 72 h, Table 2, 72 hours): 0.001 to 0.999 nM; EC50 [4, 7]: 0.001 to 0.99 nM
COC(=O)N[C@H](C(=O)N1CCC[C@H]1c1nc2c([nH]1)-c1ccc(-c3ccc4cc(-c5cnc([C@@H]6CCCN6C(=O)[C@H](NC(=O)OC)c6ccccc6)[nH]5)ccc4c3)cc1CC2)C1CCNCC1 [Example 284] | – | 0.001 to 0.99 nM | 1 to 44 nM | 4.62 nM | 1 to 44 nM | > 5 nM | –
COC(=O)N[C@H](C(=O)N1CC2(CC2)C[C@H]1c1ncc(-c2ccc(-c3ccc4cc(-c5cnc([C@@H]6CCCN6C(=O)[C@H](NC(=O)OC)c6ccccc6)[nH]5)ccc4c3)cc2)[nH]1)C(C)C [Example 233] | – | 0.001 to 0.99 nM | 0.001 to 0.999 nM | 0.005 nM | 0.001 to 0.999 nM | 0.001 to 0.99 nM | –
COC(=O)N[C@H](C(=O)N1CCC[C@H]1c1nc2c([nH]1)-c1ccc(-c3ccc4cc(-c5cnc([C@@H]6CCCN6C(=O)[C@H](NC(=O)OC(C)(C)C)c6ccccc6)[nH]5)ccc4c3)cc1CC2)C(C)C [Example 242] | – | 0.001 to 0.99 nM | 0.001 to 0.999 nM | 0.008 nM | 0.001 to 0.999 nM | 0.001 to 0.99 nM | –
COC(=O)N[C@H](C(=O)N1CCC[C@H]1c1ncc(-c2ccc3cc(-c4ccc(-c5cnc([C@@H]6[C@@H]7CC[C@@H](C7)N6C(=O)[C@H](NC(=O)OC)c6ccccc6)[nH]5)cc4)ccc3c2)[nH]1)C(C)C [Example 51] | 0.012 nM | 0.001 to 0.99 nM | – | – | – | – | EC50 [1, 6]: 1 to 44 nM; EC50 ([3]; 72 h, Table 2, 72 hours): 1 to 44 nM; EC50 [4, 7]: 1 to 4.99 nM
COC(=O)N[C@H](C(=O)N1CCC[C@H]1c1ncc(-c2ccc3c4ccc(-c5cnc([C@@H]6CCCN6C(=O)[C@@H](NC(=O)OC)C(C)C)[nH]5)cc4c4nc5ccccc5nc4c3c2)[nH]1)C(C)C [Example 19] | 0.01 nM | 0.001 to 0.99 nM | – | – | – | – | EC50 [1, 10]: 1 to 44 nM; EC50 ([3]; 72 h, Table 1, 72 hours): 1 to 44 nM; EC50 [4, 11]: > 5 nM
COC(=O)NC(C(=O)N1CC2(CC2)C[C@H]1c1ncc(-c2ccc3c(c2)C(F)(F)c2cc(-c4ccc(-c5cnc([C@@H]6CCCN6C(=O)[C@@H](NC(=O)OC)C6CCOCC6)[nH]5)cc4)ccc2-3)[nH]1)C(C)C (stereo partly drawn) [Example 207] | – | 0.001 to 0.99 nM | 0.001 to 0.999 nM | 0.017 nM | 1 to 44 nM | > 5 nM | –
COC(=O)N[C@H](C(=O)N1CCC[C@H]1c1ncc(-c2ccc(-c3ccc4c(c3)c3ccccc3c3nc([C@@H]5CCCN5C(=O)[C@@H](NC(=O)OC)C(C)C)[nH]c43)cc2)[nH]1)C(C)C [Example 299] | – | 0.001 to 0.99 nM | – | 0.017 nM | – | – | EC50 ([1]; genotype 1a replicon): 1 to 44 nM; EC50 [3]: 1 to 44 nM; EC50 [4, 12]: > 5 nM
COC(=O)N[C@H](C(=O)N1CCC[C@H]1c1ncc(-c2ccc3c(c2)COc2c-3ccc3cc(-c4cnc([C@@H]5CCCN5C(=O)[C@H](NC(=O)OC)c5ccccc5)[nH]4)ccc23)[nH]1)[C@@H](C)OC [Example 14] | 0.01 nM | 0.001 to 0.99 nM | – | – | – | – | EC50 [1, 10]: 0.001 to 0.999 nM; EC50 ([3]; 72 h, Table 1, 72 hours): 0.001 to 0.999 nM; EC50 [4, 11]: 0.001 to 0.99 nM
COC(=O)N[C@H](C(=O)N1CC2(C[C@H]1c1ncc(-c3ccc4cc(-c5ccc(-c6cnc([C@@H]7CCCN7C(=O)[C@H](NC(=O)OC)c7ccccc7)[nH]6)cc5)ccc4c3)[nH]1)OCCO2)C1CCOCC1 [Example 44] | 0.032 nM | 0.001 to 0.99 nM | – | – | – | – | EC50 [1, 6]: 0.001 to 0.999 nM; EC50 ([3]; 72 h, Table 2, 72 hours): 0.001 to 0.999 nM; EC50 [4, 7]: 1 to 4.99 nM
COC(=O)N[C@H](C(=O)N1CCC[C@H]1c1ncc(-c2ccc3cc(-c4ccc(-c5cnc([C@@H]6CCCN6C(=O)[C@H](NC(=O)C6CCCO6)c6ccccc6)[nH]5)cc4)ccc3c2)[nH]1)C(C)C (stereo partly drawn) [Example 261] | – | 0.001 to 0.99 nM | 0.001 to 0.999 nM | 0.011 nM | 0.001 to 0.999 nM | 0.001 to 0.99 nM | –
COC(=O)N[C@H](C(=O)N1CCC[C@H]1c1ncc(-c2ccc(-c3ccc4c(ccc5nc([C@@H]6CC7(CN6C(=O)[C@@H](NC(=O)OC)[C@@H](C)OC)OCCO7)[nH]c54)c3)cc2)[nH]1)C(C)C [Example 90] | 0.044 nM | 0.001 to 0.99 nM | – | – | – | – | EC50 [1, 6]: 0.001 to 0.999 nM; EC50 ([3]; 72 h, Table 2, 72 hours): 0.001 to 0.999 nM; EC50 [4, 7]: 1 to 4.99 nM
COC(=O)N[C@H](C(=O)N1CCC[C@H]1c1ncc(-c2ccc3c4ccc(-c5cnc([C@@H]6CCCN6C(=O)[C@@H](NC(=O)OC)C(C)C)[nH]5)cc4c4nccnc4c3c2)[nH]1)C(C)C [Example 18] | 0.018 nM | 0.001 to 0.99 nM | – | – | – | – | EC50 [1, 10]: 0.001 to 0.999 nM; EC50 ([3]; 72 h, Table 1, 72 hours): 0.001 to 0.999 nM; EC50 [4, 11]: 1 to 4.99 nM
COC(=O)N[C@H](C(=O)N1CCS[C@@H]1c1nc2ccc3cc(-c4ccc(-c5cnc([C@@H]6CCCN6C(=O)[C@@H](NC(=O)OC)C6CCOCC6)[nH]5)cc4)ccc3c2[nH]1)C(C)C [Example 332] | – | 0.001 to 0.99 nM | – | 1.25 nM | – | – | EC50 ([1]; genotype 1a replicon): 1 to 44 nM; EC50 [3]: 0.001 to 0.999 nM; EC50 [4, 12]: 1 to 4.99 nM
COC(=O)N[C@H](C(=O)N1CCC[C@H]1c1ncc(-c2ccc3c(c2)COc2c-3ccc3cc(-c4cnc([C@@H]5CCCN5C(=O)[C@@H](NC(=O)OC)[C@@H](C)OC)[nH]4)ccc23)[nH]1)[C@@H](C)OC [Example 17] | 0.014 nM | 0.001 to 0.99 nM | – | – | – | – | EC50 [1, 10]: 0.001 to 0.999 nM; EC50 ([3]; 72 h, Table 1, 72 hours): 0.001 to 0.999 nM; EC50 [4, 11]: > 5 nM
COC(=O)N[C@H](C(=O)N1[C@@H]2CC[C@@H](C2)[C@H]1c1ncc(-c2ccc(-c3ccc4cc(-c5cnc([C@@H]6CCCN6C(=O)[C@H](NC(=O)OC)c6ccccc6)[nH]5)ccc4c3)cc2)[nH]1)C(C)C [Example 42] | 0.008 nM | 0.001 to 0.99 nM | – | – | – | – | EC50 [1, 6]: 0.001 to 0.999 nM; EC50 ([3]; 72 h, Table 2, 72 hours): 0.001 to 0.999 nM; EC50 [4, 7]: 1 to 4.99 nM
COC(=O)N[C@H](C(=O)N1[C@@H]2C[C@@H]2C[C@H]1c1nc2ccc3cc(-c4ccc5c(ccc6nc([C@@H]7[C@H]8CC[C@H](C8)N7C(=O)[C@H](NC(=O)OC)c7ccccc7)[nH]c65)c4)ccc3c2[nH]1)C(C)C [Example 343] | – | 0.001 to 0.99 nM | – | 0.012 nM | – | – | EC50 ([1]; genotype 1a replicon): 0.001 to 0.999 nM; EC50 [3]: 0.001 to 0.999 nM; EC50 [4, 12]: 0.001 to 0.99 nM
COC(=O)N[C@H](C(=O)N1CCC[C@H]1c1nc2c3ccccc3c3cc(-c4ccc(-c5cnc([C@@H]6CCCN6C(=O)[C@@H](NC(=O)OC)[C@@H](C)OC)[nH]5)cc4)ccc3c2[nH]1)C(C)C [Example 301] | – | 0.001 to 0.99 nM | – | 0.019 nM | – | – | EC50 ([1]; genotype 1a replicon): 1 to 44 nM; EC50 [3]: 1 to 44 nM; EC50 [4, 12]: 1 to 4.99 nM
COC(=O)N[C@H](C(=O)N1c2ccccc2C[C@H]1c1ncc(-c2ccc(-c3ccc(-c4cnc([C@@H]5Cc6ccccc6N5C(=O)[C@@H](NC(=O)OC)C(C)C)[nH]4)cc3)cc2)[nH]1)C(C)C [Example 267] | – | 0.001 to 0.99 nM | 1 to 44 nM | 0.045 nM | > 44 nM | > 5 nM | –
COC(=O)N[C@H](C(=O)N1[C@@H]2CC[C@@H](C2)[C@H]1c1ncc(-c2ccc(-c3ccc4cc(-c5cnc([C@@H]6CCCN6C(=O)[C@H](NC(=O)OC)c6ccccc6)[nH]5)ccc4c3)cc2)[nH]1)[C@@H](C)OC [Example 72] | 0.006 nM | 0.001 to 0.99 nM | – | – | – | – | EC50 [1, 6]: 0.001 to 0.999 nM; EC50 ([3]; 72 h, Table 2, 72 hours): 0.001 to 0.999 nM; EC50 [4, 7]: 0.001 to 0.99 nM
COC(=O)N[C@H](C(=O)N1CCC[C@H]1c1ncc(-c2ccc3cc(-c4ccc(-c5cnc([C@@H]6CCCN6C(=O)[C@H](NC(=O)c6ccccn6)c6ccccc6)[nH]5)cc4)ccc3c2)[nH]1)C(C)C [Example 221] | – | 0.001 to 0.99 nM | 0.001 to 0.999 nM | 0.017 nM | 0.001 to 0.999 nM | 0.001 to 0.99 nM | –
COC(=O)N[C@H](C(=O)N1CCC[C@H]1c1ncc(-c2ccc3c(c2)CCc2cc(-c4cnc([C@@H]5[C@H]6CC[C@H](C6)N5C(=O)[C@@H](NC(=O)OC)[C@@H](C)OC)[nH]4)ccc2-3)[nH]1)C(C)C [Example 93] | 0.023 nM | 0.001 to 0.99 nM | – | – | – | – | EC50 [1, 6]: 0.001 to 0.999 nM; EC50 ([3]; 72 h, Table 2, 72 hours): 0.001 to 0.999 nM; EC50 [4, 7]: 0.001 to 0.99 nM
COC(=O)NC(C(=O)N1CCC[C@H]1c1ncc(-c2ccc3c(c2)OCc2cc(-c4ccc5nc([C@@H]6[C@H]7CC[C@H](C7)N6C(=O)[C@H](NC(=O)OC)c6ccccc6)[nH]c5c4)ccc2-3)[nH]1)[C@@H](C)OC (stereo in doubt) [Example 294] | – | 0.001 to 0.99 nM | – | 0.01 nM | – | – | EC50 ([1]; genotype 1a replicon): 0.001 to 0.999 nM; EC50 [3]: 0.001 to 0.999 nM; EC50 [4, 12]: 0.001 to 0.99 nM
COC(=O)N[C@H](C(=O)N1CCC[C@H]1c1nc2ccc3cc(-c4ccc5cc(-c6cnc([C@@H]7CCCN7C(=O)[C@H](NC(=O)N7CCOCC7)c7ccccc7)[nH]6)ccc5c4)ccc3c2[nH]1)C(C)C [Example 288] | – | 0.001 to 0.99 nM | 0.001 to 0.999 nM | 0.009 nM | 0.001 to 0.999 nM | 0.001 to 0.99 nM | –
